From ChEMBL document CHEMBL1201862, “PubChem BioAssay data set” (2004)
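A five-concentration, 48-hour dose response in 96-well plates underlies each endpoint, interpolated linearly between surrounding concentrations. At the GI50, growth is halved.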 Active and inactive are the calls of the source. Cut-off read from the data, not from the text of the source: active = GI50 up to about 1.1 µM and inactive = higher.

Key:
Test in all cases: inhibition of tumour cell growth, NCI panel, 48 h
PC-3 = system: PC-3
SR = system: SR
T47D = system: T47D
SNB-75 = system: SNB-75
NCI-H460 = system: NCI-H460
MCF7 = system: MCF7
BT-549 = system: BT-549
A498 = system: A498
SK-MEL-2 = system: SK-MEL-2
DU-145 = system: DU-145
M14 = system: M14
MDA-N = system: MDA-N
A549 = system: A549
OVCAR-4 = system: OVCAR-4
LOX IMVI = system: LOX IMVI
HL-60 = system: HL-60
IGROV-1 = system: IGROV-1
OVCAR-3 = system: OVCAR-3
Malme-3M = system: Malme-3M
TK-10 = system: TK-10
NCI/ADR-RES = system: NCI/ADR-RES
NCI-H226 = system: NCI-H226
MDA-MB-231 = system: MDA-MB-231
UO-31 = system: UO-31
CCRF-CEM = system: CCRF-CEM
ACHN = system: ACHN
SNB-19 = system: SNB-19
SF-539 = system: SF-539
HT-29 = system: HT-29
NCI-H522 = system: NCI-H522
HCC 2998 = system: HCC 2998
SF-295 = system: SF-295
EKVX = system: EKVX
K562 = system: K562
SK-MEL-5 = system: SK-MEL-5
786-0 = system: 786-0
SK-OV-3 = system: SK-OV-3
MDA-MB-435 = system: MDA-MB-435
OVCAR-8 = system: OVCAR-8
MOLT-4 = system: MOLT-4
KM12 = system: KM12
UACC-257 = system: UACC-257
SN12C = system: SN12C
OVCAR-5 = system: OVCAR-5
SW-620 = system: SW-620
HCT-15 = system: HCT-15
Hs-578T = system: Hs-578T
NCI-H23 = system: NCI-H23
CAKI-1 = system: CAKI-1
HOP-62 = system: HOP-62
U-251 = system: U-251
RPMI-8226 = system: RPMI-8226
SF-268 = system: SF-268
HCT-116 = system: HCT-116
COLO 205 = system: COLO 205
UACC-62 = system: UACC-62
HOP-92 = system: HOP-92
SK-MEL-28 = system: SK-MEL-28

Compound: NC(=O)c1nnc2c(F)cccc2c1N
- GI50 (PC-3): > 100 µM (inactive)
- GI50 (SR): > 100 µM (inactive)
- GI50 (T47D): > 100 µM (inactive)
- GI50 (SNB-75): > 100 µM (inactive)
- GI50 (NCI-H460): 72.1 µM (inactive)
- GI50 (MCF7): 40 µM (inactive)
- GI50 (BT-549): 58.9 µM (inactive)
- GI50 (A498): > 100 µM (inactive)
- GI50 (SK-MEL-2): > 100 µM (inactive)
- GI50 (DU-145): > 100 µM (inactive)
- GI50 (M14): > 100 µM (inactive)
- GI50 (MDA-N): 66.5 µM (inactive)
- GI50 (A549): 84.5 µM (inactive)
- GI50 (OVCAR-4): > 100 µM (inactive)
- GI50 (LOX IMVI): 52 µM (inactive)
- GI50 (HL-60): > 100 µM (inactive)
- GI50 (IGROV-1): > 100 µM (inactive)
- GI50 (OVCAR-3): > 100 µM (inactive)
- GI50 (Malme-3M): > 100 µM (inactive)
- GI50 (TK-10): > 100 µM (inactive)
- GI50 (NCI/ADR-RES): > 100 µM (inactive)
- GI50 (NCI-H226): 46.6 µM (inactive)
- GI50 (MDA-MB-231): > 100 µM (inactive)
- GI50 (UO-31): 56 µM (inactive)
- GI50 (CCRF-CEM): 28.7 µM (inactive)
- GI50 (ACHN): > 100 µM (inactive)
- GI50 (SNB-19): > 100 µM (inactive)
- GI50 (SF-539): > 100 µM (inactive)
- GI50 (HT-29): > 100 µM (inactive)
- GI50 (NCI-H522): 21.9 µM (inactive)
- GI50 (HCC 2998): 93.1 µM (inactive)
- GI50 (SF-295): > 100 µM (inactive)
- GI50 (EKVX): > 100 µM (inactive)
- GI50 (K562): 55.1 µM (inactive)
- GI50 (SK-MEL-5): > 100 µM (inactive)
- GI50 (786-0): > 100 µM (inactive)
- GI50 (SK-OV-3): 45.2 µM (inactive)
- GI50 (MDA-MB-435): 77.3 µM (inactive)
- GI50 (OVCAR-8): > 100 µM (inactive)
- GI50 (MOLT-4): > 100 µM (inactive)
- GI50 (KM12): > 100 µM (inactive)
- GI50 (UACC-257): > 100 µM (inactive)
- GI50 (SN12C): > 100 µM (inactive)
- GI50 (OVCAR-5): > 100 µM (inactive)
- GI50 (SW-620): 27.4 µM (inactive)
- GI50 (HCT-15): 92 µM
- GI50 (Hs-578T): > 100 µM (inactive)
- GI50 (NCI-H23): > 100 µM (inactive)
- GI50 (CAKI-1): > 100 µM (inactive)
- GI50 (HOP-62): > 100 µM (inactive)
- GI50 (U-251): > 100 µM (inactive)
- GI50 (RPMI-8226): > 100 µM (inactive)
- GI50 (SF-268): > 100 µM (inactive)
- GI50 (HCT-116): 64.4 µM (inactive)
- GI50 (COLO 205): 73.3 µM (inactive)
- GI50 (UACC-62): 73.8 µM (inactive)

Compound: Nn1c(Cc2ccc([N+](=O)[O-])cc2)n[nH]c1=O
- GI50 (PC-3): > 100 µM (inactive)
- GI50 (SR): > 100 µM (inactive)
- GI50 (T47D): > 100 µM (inactive)
- GI50 (SNB-75): > 100 µM (inactive)
- GI50 (NCI-H460): > 100 µM (inactive)
- GI50 (MCF7): > 100 µM (inactive)
- GI50 (BT-549): > 100 µM (inactive)
- GI50 (SK-MEL-2): > 100 µM (inactive)
- GI50 (HOP-92): > 100 µM (inactive)
- GI50 (DU-145): > 100 µM (inactive)
- GI50 (M14): > 100 µM (inactive)
- GI50 (MDA-N): > 100 µM (inactive)
- GI50 (A549): > 100 µM (inactive)
- GI50 (OVCAR-4): > 100 µM (inactive)
- GI50 (LOX IMVI): > 100 µM (inactive)
- GI50 (HL-60): > 100 µM (inactive)
- GI50 (IGROV-1): > 100 µM (inactive)
- GI50 (OVCAR-3): > 100 µM (inactive)
- GI50 (Malme-3M): > 100 µM (inactive)
- GI50 (NCI/ADR-RES): > 100 µM (inactive)
- GI50 (NCI-H226): > 100 µM (inactive)
- GI50 (MDA-MB-231): > 100 µM (inactive)
- GI50 (UO-31): > 100 µM (inactive)
- GI50 (CCRF-CEM): > 100 µM (inactive)
- GI50 (ACHN): > 100 µM (inactive)
- GI50 (SNB-19): > 100 µM (inactive)
- GI50 (SF-539): > 100 µM (inactive)
- GI50 (HT-29): > 100 µM (inactive)
- GI50 (NCI-H522): > 100 µM (inactive)
- GI50 (SK-MEL-28): > 100 µM (inactive)
- GI50 (HCC 2998): > 100 µM (inactive)
- GI50 (SF-295): > 100 µM (inactive)
- GI50 (EKVX): > 100 µM (inactive)
- GI50 (K562): > 100 µM (inactive)
- GI50 (SK-MEL-5): > 100 µM (inactive)
- GI50 (786-0): > 100 µM (inactive)
- GI50 (SK-OV-3): > 100 µM (inactive)
- GI50 (MDA-MB-435): > 100 µM (inactive)
- GI50 (OVCAR-8): > 100 µM (inactive)
- GI50 (MOLT-4): > 100 µM (inactive)
- GI50 (KM12): > 100 µM (inactive)
- GI50 (UACC-257): > 100 µM (inactive)
- GI50 (SN12C): > 100 µM (inactive)
- GI50 (OVCAR-5): > 100 µM (inactive)
- GI50 (SW-620): > 100 µM (inactive)
- GI50 (HCT-15): > 100 µM
- GI50 (Hs-578T): > 100 µM (inactive)
- GI50 (NCI-H23): > 100 µM (inactive)
- GI50 (CAKI-1): > 100 µM (inactive)
- GI50 (HOP-62): > 100 µM (inactive)
- GI50 (U-251): > 100 µM (inactive)
- GI50 (RPMI-8226): > 100 µM (inactive)
- GI50 (SF-268): > 100 µM (inactive)
- GI50 (HCT-116): > 100 µM (inactive)
- GI50 (COLO 205): > 100 µM (inactive)
- GI50 (UACC-62): > 100 µM (inactive)
